pIC50: −log10 of the molar value. Where a name gives a salt, the structure may show the parent alone.
How the values were obtained:
Flt-3 = molecular target: T1, Flt-3 (Homo sapiens, UniProt P36888); assay: Flt-3 kinase inhibition (GST-Flt-3, 33P incorporation into poly(Glu,Tyr)); format: biochemical
T1 construct: amino acids 563-993 of the cytoplasmic kinase domain of human Flt-3; made in house; host or cells: Sf9 insect cells (baculovirus, vector pFbacG01)
T1 sequence (P36888 563-993): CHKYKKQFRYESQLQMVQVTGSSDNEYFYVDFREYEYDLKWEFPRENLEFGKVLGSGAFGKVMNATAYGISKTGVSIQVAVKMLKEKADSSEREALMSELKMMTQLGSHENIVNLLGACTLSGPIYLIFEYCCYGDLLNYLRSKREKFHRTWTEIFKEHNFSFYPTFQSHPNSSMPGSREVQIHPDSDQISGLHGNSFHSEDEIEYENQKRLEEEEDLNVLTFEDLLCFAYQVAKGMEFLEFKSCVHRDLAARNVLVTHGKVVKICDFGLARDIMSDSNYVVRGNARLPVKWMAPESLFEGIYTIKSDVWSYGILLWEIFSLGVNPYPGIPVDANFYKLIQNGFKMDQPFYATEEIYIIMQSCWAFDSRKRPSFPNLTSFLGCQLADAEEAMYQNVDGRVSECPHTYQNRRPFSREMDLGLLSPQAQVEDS
Protocol: Flt-3 kinase inhibition is determined as follows: The baculovirus donor vector pFbacG01 (GIBCO) is used to generate a recombinant baculovirus expressing the amino acid region amino acids 563-993 of the cytoplasmic kinase domain of human Flt-3. The coding sequence for the cytoplasmic domain of Flt-3 is amplified by PCR from human c-DNA libraries (Clontech). The amplified DNA fragments and the pFbacG01 vector are made compatible for ligation by digestion with BamHI and HindIII. Ligation of these DNA fragments results in the baculovirus donor plasmid pFbacG01-Flt-3. The production of the viruses, the expression of proteins in Sf9 cells and the purification of the GST-fused proteins are performed as follows:
Production of virus: The baculovirus donor plasmid (pFbacG01-Flt-3) containing the Flt-3 kinase domain is transfected into the DH10Bac cell line (GIBCO) and the transfected cells are plated on selective agar plates. Colonies without insertion of the fusion sequence into the viral genome (carried by the bacteria) are blue. Single white colonies are picked and viral DNA (bacmid) is isolated from the bacteria by standard plasmid purification procedures. Sf9 or Sf21 cells (American Type Culture Collection) are then transfected in flasks with the viral DNA using Cellfectin reagent.
Protein expression in Sf9 cells: Virus containing media is collected from the transfected cell culture and used for infection to increase its titre. Virus containing media obtained after two rounds of infection is used for large-scale protein expression. For large-scale protein expression 100 cm^2 round tissue culture plates are seeded with 5×10^7 cells/plate and infected with 1 mL of virus-containing media (approx. 5 MOIs). After 3 days the cells are scraped off the plate and centrifuged at 500 rpm for 5 min. Cell pellets from 10-20, 100 cm^2 plates are resuspended in 50 mL of ice-cold lysis buffer (25 mM Tris-HCl, pH 7.5, 2 mM EDTA-1% NP-40. 1 mM DTT, 1 mM PMSF). The cells are stirred on ice for 15 min and then centrifuged at 5000 rpms for 20 min.
Purification of GST-tagged protein: The centrifuged cell lysate is loaded onto a 2 mL glutathione-sepharose column (Pharmacia) and washed three times with 10 mL of 25 mM Tris-HCl, pH 7.5, 2 mM EDTA, 1 mM DTT, 200 mM NaCl. The GST-tagged protein is then eluted by 10 applications (1 mL each) of 25 mM Tris-HCl, pH 7.5, 10 mM reduced-glutathione, 100 mM NaCl, 1 mM DTT, 10% Glycerol and stored at −70° C.
Measurement of enzyme activity: Tyrosine protein kinase assays with purified GST-Flt-3 protein are carried out in a final volume of 30 μL containing 200-1800 ng of enzyme protein (depending on the specific activity), 20 mM Tris-HCl, pH 7.6, 3 mM MnCl2, 3 mM MgCl2, 1 mM DTT, 10 μM Na3VO4, 3 μg/mL poly(Glu, Tyr) 4:1, 1% DMSO, 8.0 μM ATP and 0.1 μCi [γ^33 P] ATP. The activity is assayed in the presence or absence of inhibitors, by measuring the incorporation of ^33P from [γ^33P] ATP into the poly(Glu,Tyr) substrate. The assay (30 μL) is carried out in 96-well plates at ambient temperature for 20 min and terminated by the addition of 20 μL of 125 mM EDTA. Subsequently, 40 μL of the reaction mixture is transferred onto Immobilon-PVDF membrane (Millipore, Bedford, Mass., USA) previously soaked for 5 min with methanol, rinsed with water, then soaked for 5 min with 0.5% H3PO4 and mounted on vacuum manifold with disconnected vacuum source. After spotting all samples, vacuum is connected and each well rinsed with 200 μL 0.5% H3PO4. Membranes are removed and washed 4× on a shaker with 1.0% H3PO4, once with ethanol. Membranes are counted after drying at ambient temperature, mounting in Packard TopCount 96-well frame, and addition of 10 μL/well of Microscint™ (Packard). IC50 values are calculated by linear regression analysis of the percentage inhibition of each compound in duplicate, at four concentrations (usually 0.01, 0.1, 1 and 10 μM). One unit of protein kinase activity is defined as 1 nmole of ^33P transferred from [γ3P] […]

melting point	pIC50 (Flt-3)	Compound
191 to 193 °C	–	CCN1CCN(Cc2ccc(NC(=O)Nc3ccc(Oc4cc(NC(=O)OC)ncn4)cc3)cc2C(F)(F)F)CC1 [Example 70]
228 °C	6.77	Cc1nccn1Cc1ccc(NC(=O)Nc2ccc(Oc3cc(Cl)ncn3)cc2)cc1C(F)(F)F [Example 24, N-[4-(6-Chloro-pyrimidin-4-yloxy)-phenyl]-N′-[4-(2-methylimidazol-1-ylmethyl)-3-trifluoromethyl-phenyl]-urea]
203 to 204 °C	–	CCN1CCN(Cc2ccc(NC(=O)Nc3ccc(Oc4cc(Cl)ncn4)cc3)cc2)CC1 [Example 27, N-[4-(6-Chloro-pyrimidin-4-yloxy)-phenyl]-N′-[4-(4-ethylpiperazin-1-ylmethyl)-phenyl]-urea]
153 to 155 °C	7.42	Nc1cc(Oc2ccc(NC(=O)Nc3ccc(CN4CCNCC4)c(C(F)(F)F)c3)cc2)ncn1 [Example 19-1, N-[4-(6-Amino-pyrimidin-4-yloxy)-phenyl]-N′-[4-(4-H-piperazin-1-ylmethyl)-5-trifluoromethyl-phenyl]-urea]
118 to 123 °C	6.80	CNc1cc(Oc2ccc(NC(=O)Nc3ccc(-c4cccnc4)c(C(F)(F)F)c3)cc2)ncn1 [Example 62, 1-[4-(6-Methylamino-pyrimidin-4-yloxy)-phenyl]-3-(4-pyridin-3-yl-3-trifluoromethyl-phenyl)-urea]
114 to 118 °C	6.31	CNc1cc(Oc2ccc(NC(=O)Nc3ccc(-c4ccccn4)c(C(F)(F)F)c3)cc2)ncn1 [Example 61, 1-[4-(6-Methylamino-pyrimidin-4-yloxy)-phenyl]-3-(4-pyridin-2-yl-3-trifluoromethyl-phenyl)-urea]
131 to 135 °C	7.12	Nc1cc(Oc2ccc(NC(=O)Nc3ccc(-c4ccncc4)c(C(F)(F)F)c3)cc2)ncn1 [Example 59, 1-[4-(6-Amino-pyrimidin-4-yloxy)-phenyl]-3-(4-pyridine-4-yl-3-trifluoromethyl-phenyl)-urea]
197 to 198 °C	7.10	CNc1cc(Oc2ccc(NC(=O)Nc3ccc(CN4CCNCC4)c(C(F)(F)F)c3)cc2)ncn1 [Example 19-2, N-[4-(6-Methylamino-pyrimidin-4-yloxy)-phenyl]-N′-[4-(4-H-piperazin-1-ylmethyl)-5-trifluoromethyl-phenyl]-urea]
291 to 292 °C	6.49	CN1CCN(Cc2cc(NC(=O)Nc3ccc(Oc4cc(Cl)ncn4)cc3)cc(C(F)(F)F)c2)CC1 [Example 9, N-[4-(6-Chloro-Pyrimidin-4-yloxy)-phenyl]-N′-[3-(4-methylpiperazin-1-ylmethyl)-5-trifluoromethyl-phenyl]-urea]
101 °C	6.27	CC(C)N1CCN(Cc2cc(NC(=O)Nc3ccc(Oc4cc(Cl)ncn4)cc3)cc(C(F)(F)F)c2)CC1 [Example 5, N-[4-(6-Chloro-pyrimidin-4-yloxy)-phenyl]-N′-[3-(4-isopropylpiperazin-1-ylmethyl)-5-trifluoromethyl-phenyl]-urea]
106 to 109 °C	6.47	CNc1cc(Oc2ccc(NC(=O)Nc3ccc(-c4cccc(C)n4)c(C(F)(F)F)c3)cc2)ncn1 [Example 64, 1-[4-(6-Methylamino-pyrimidin-4-yloxy)-phenyl]-3-[4-(6-methyl-pyridin-2-yl)-3-trifluoromethyl-phenyl]-urea]
68 to 70 °C	6.64	CCN(CC)Cc1cc(NC(=O)Nc2ccc(Oc3cc(NC)ncn3)cc2)cc(C(F)(F)F)c1 [Example 11, N-[4-(6-Methylamino-pyrimidin-4-yloxy)-phenyl]-N′-(3-diethylaminomethyl-5-trifluoromethyl-phenyl)-urea]
195 to 196 °C	5.89	Cc1ncn(Cc2ccc(NC(=O)Nc3ccc(Oc4cc(Cl)ncn4)cc3)cc2C(F)(F)F)c1C [Example 23, N-[4-(6-Chloro-pyrimidin-4-yloxy)-phenyl]-N′-[4-(4,5-dimethylimidazol-1-ylmethyl)-3-trifluoromethyl-phenyl]-urea]
132 to 135 °C	6.92	Nc1cc(Oc2ccc(NC(=O)Nc3ccc(-c4cccnc4)c(C(F)(F)F)c3)cc2)ncn1 [Example 58, 1-[4-(6-Amino-pyrimidin-4-yloxy)-phenyl]-3-(4-pyridin-3-yl-3-trifluoromethyl-phenyl)-urea]
–	6.21	CNc1cc(Oc2ccc(NC(=O)Nc3ccc(CN(C)C)c(C(F)(F)F)c3)cc2)ncn1 [Example 34l.1]
–	6.59	Nc1nccc(Oc2ccc(NC(=O)Nc3cc(-c4ccccn4)cc(C(F)(F)F)c3)cc2)n1 [Example 52d]
98 to 105 °C	–	CN(C)Cc1ccc(NC(=O)Nc2ccc(Oc3cc(Cl)ncn3)cc2)cc1C(F)(F)F [Example 20-2, N-[4-(6-Chloro-pyrimidin-4-yloxy)-phenyl]-N′-[4-(N,N-dimethylamino-methyl)-3-trifluoromethyl-phenyl]-urea]
–	7.10	Cc1nccn1Cc1ccc(NC(=O)Nc2ccc(Oc3cc(N)ncn3)cc2)cc1C(F)(F)F [Example 34e.3]
–	6.89	CNc1cc(Oc2ccc(NC(=O)Nc3ccc(CN4CCOCC4)c(C(F)(F)F)c3)cc2)ncn1 [Example 34k.1]
–	6.04	O=C(Nc1ccc(Oc2cc(Cl)ncn2)cc1)Nc1cc(CN2CCC2)cc(C(F)(F)F)c1 [Example 1, N-[4-(6-Chloro-pyrimidin-4-yloxy)-phenyl]-N′-[3-(azetidin-1-ylmethyl)-5-trifluoromethyl-phenyl]-urea]
–	6.03	CNc1cc(Oc2ccc(NC(=O)Nc3ccc(CN4CC[N+]([O-])(C(C)C)CC4)c(C(F)(F)F)c3)cc2)ncn1 [Example 17, N-[4-(6-Methylamino-pyrimidin-4-yloxy)-phenyl]-N′-[4-(4-isopropyl-4-oxy-piperazin-1-ylmethyl)-3-trifluoromethyl-phenyl]-urea trifluoroacetate]
–	6.17	CNc1cc(Oc2ccc(NC(=O)Nc3ccc(Cn4cnc(C)c4C)c(C(F)(F)F)c3)cc2)ncn1 [Example 34d.1]
–	6.77	CNc1nccc(Oc2ccc(NC(=O)Nc3ccc(Cn4ccnc4C)c(C(F)(F)F)c3)cc2)n1 [Example 51b.2]
–	6.23	CNc1cc(Oc2ccc(NC(=O)Nc3ccc(CN4CCN(Cc5ccc(OC)cc5)CC4)c(C(F)(F)F)c3)cc2)ncn1 [Example 34p.1]
–	6.62	Nc1cc(Oc2ccc(NC(=O)Nc3ccc(N4CCC(N5CCCCC5)CC4)c(C(F)(F)F)c3)cc2)ncn1 [Example 34s.2]
–	6.87	CCN1CCN(Cc2ccc(NC(=O)Nc3ccc(Oc4ccnc(NC)n4)cc3)cc2C)CC1 [Example 51d.2]

Reference: patent US20080312192A1, “Diaryl Urea Derivatives in the Treatment of Protein Kinase Dependent Diseases” (priority 2003, published 2008)
